# Literature values, collected in patent US6949518B1, “Methods for treating macular degeneration with topiramate” (priority 2003, dated 2005).
# What was measured:
# [1] = system: patients with type 2 diabetes
# [2] = elimination predominantly unchanged via the renal route
compound,measurement,setting,value
"CC1(C)O[C@@H]2[C@@H](CO[C@@]3(COS(N)(=O)=O)OC(C)(C)O[C@@H]23)O1 [topiramate, 2,3:4,5-Di-O-isopropylidene-β-D-fructopyranose sulfamate]",dendrite length,[1]; by the end of trial,increased
same,peroneal nerve amplitude,[1]; by the end of trial,increased
same,total neuropathy scores,"[1]; end of trial, decreased from baseline 14, 11 patients, 25 mg/day titrated over 42 days to maximum tolerated dose or 100 mg/day, then 84 more days",11.8
same,"solubility in acetone, chloroform, dimethylsulfoxide, and ethanol",organic solvents,freely soluble
same,pH of saturated solution,saturated solution,6.3
same,plasma t½,[2],20 to 30 h
same,carbonic anhydrase inhibition,carbonic anhydrase,weak carbonic anhydrase inhibitor
